No end group written: not given here.
Key:
[1] = system: PGN-, Pam3CSK4- and CPS-activated RAW 264.7 macrophages; experiment: NO generation induced by other bacterial components in RAW 264.7 (Griess reaction); assay type: cell-based, mouse; details: 24 h, Fig 1B
Experimental: (§1) RAW 264.7 cells (2 × 10^5 in 0.5 ml of medium) were seeded in 24-well plates and then incubated with or without LPS (0.1 μg/ml) in the absence or presence of AMP for 24 h. The effects of AMP on NO production were measured indirectly by analyzing nitrite levels using the Griess reaction as described in detail previously.
(§2) Fig 1 Effects of GW-A2 on the expression levels of inflammatory mediators. (A) RAW 264.7 macrophages were incubated for 30 min with or without GW-A2 or scrambled GW-A2, followed by incubation with or without 0.1 μg/ml of E. coli LPS or Salmonella LPS for 24 h. The levels of NO in the culture medium were measured by the Griess reaction. (B) RAW 264.7 macrophages were incubated for 30 min with or without GW-A2, followed by incubation with or without peptidoglycan (20 μg/ml), Pam3CSK4 (0.2 μg/ml) or capsular polysaccharide (3 μg/ml) for 24 h. The levels of NO in the culture medium were measured by the Griess reaction. (C) RAW 264.7 macrophages were incubated for 30 min with or without GW-A2, followed by incubation with or without 0.1 μg/ml of E. coli LPS for 24 h. The levels of iNOS and COX-2 were assessed by Western blotting and the histograms represent the expression levels compared to the LPS alone group obtained in three different experiments. (D) RAW 264.7 macrophages were incubated for 30 min with or without GW-A2, followed by incubation with or without 0.1 μg/ml of E. coli LPS for 6 h. The mRNA levels of iNOS and COX-2 were assessed by quantitative real-time PCR. (E and F) RAW 264.7 macrophages (E) and human THP-1 macrophages (F) were incubated for 30 min with or without GW-A2, followed by incubation with or without 0.1 μg/ml of E. coli LPS for 24 h. The levels of TNF-α and IL-6 were assayed by ELISA. […] The cell proliferation was measured by AlamarBlue® assay. The data are expressed as the mean ± SD of three independent experiments. *, ** and *** indicate significant differences, representing p < 0.05, p < 0.01 and p < 0.001, respectively compared to stimulation alone. # indicates significant differences, representing p < 0.05 compared to 2 μM of GW-A2 group.

[2] = system: LPS-induced NO generation in RAW264.7 cells; experiment: NO inhibitory assay (Griess reaction), LPS-activated RAW 264.7; assay type: cell-based, mouse
Experimental: as §1

[3] = system: NF-κB activity in RAW-Blue cells; experiment: NF-κB reporter assay; assay type: cell-based; details: E. coli LPS 0.1 μg/ml 24 h, QUANTI-Blue, Fig 2D
Experimental: RAW-Blue™ cells (2 × 10^5 in 0.5 ml of medium) were seeded in 24-well plates and then incubated with LPS (0.1 μg/ml) in the presence or absence of AMPs for 24 h. The NF-κB activity was assayed by QUANTI-Blue™ (rep-qb1, InvivoGen) as described in detail previously.

[4] = system: cell surface of paraformaldehyde-fixed RAW 264.7 cells; experiment: Flow cytometry, binding to the cell surface; assay type: cell-based, mouse; details: fixed RAW 264.7, GW-A2 30 min then 2 μg/ml LPS-FITC 30 min, 4°C; Fig 6A
Experimental: For binding of GW-A2 to the cell surface, RAW 264.7 cells were fixed for 15 min with 2% paraformaldehyde and then incubated for 30 min with 20 μM of GW-A2-FITC at 4°C. After washing, cells were subjected to flow cytometric analysis on a FACSCalibur using CellQuest Software (Becton Dickinson Inc., San Jose, CA, USA). To assess binding of LPS to the cell surface, RAW 264.7 cells were fixed for 15 min with 2% paraformaldehyde and then incubated for 30 min with GW-A2. This was followed by incubation for 30 min with 2 μg/ml of LPS-FITC (F3665, Sigma) at 4°C. After washing, the cells were subjected to flow cytometric analysis.

[5] = system: E. coli-LPS-activated RAW 264.7 macrophages; experiment: TNF-α and IL-6 secretion ELISA, RAW 264.7; assay type: cell-based, mouse; details: RAW 264.7, E. coli LPS 0.1 μg/ml 24 h, Fig 1E
Experimental: The expression levels of IL-1β, IL-6 and TNF-α in the conditional medium, sera and lavage fluids were measured by ELISA as described in detail previously.
as §2, with “(C) RAW 264.7 macrophages were incubated for 30 min with or without GW-A2, followed by incubation with or without 0.1 μg/ml of E. coli LPS for 24 h.” left out, “(D) RAW 264.7 macrophages were incubated for 30 min with or without GW-A2, followed by incubation with or without 0.1 μg/ml of E. coli LPS for 6 h.” left out, “PCR.” for “PCR. (E and F) RAW 264.7 macrophages (E) and human THP-1 macrophages (F) were incubated for 30 min with or without GW-A2, followed by incubation with or without 0.1 μg/ml of E. coli LPS for 24 h. The levels of TNF-α and IL-6 were assayed by ELISA.”

## GAKYAKIIYNYLKKIANALW [GW-A2]
[1]; Pam3CSK4 0.2 μg/ml
  NO inhibitory activity in Pam3CSK4-activated macrophages: much lower than that in LPS-activated macrophages
[1]; capsular polysaccharide 3 μg/ml
  NO inhibitory activity in CPS-activated macrophages: much lower than that in LPS-activated macrophages
[1]; peptidoglycan 20 μg/ml
  NO inhibitory activity in PGN-activated macrophages: much lower than that in LPS-activated macrophages
[2]; 2 μM GW-A2, Fig 3B
  NO generation, GW-A2 added 0–8 h post LPS stimulation (therapeutic): significantly inhibited
  NO generation, GW-A2 added 16 h after LPS stimulation: no effect
[2]; RAW 264.7, 30 min peptide then 0.1 μg/ml E. coli LPS 24 h, Griess, Fig 1A
  NO generation induced by E. coli-LPS: inhibited by GW-A2 in a dose-dependent manner
[2]; RAW 264.7, 30 min peptide then 0.1 μg/ml Salmonella LPS 24 h, Griess, Fig 1A
  NO generation induced by Salmonella-LPS: inhibited by GW-A2 in a dose-dependent manner
[2]; pre-incubation 0–24 h, then LPS 24 h, Fig 3A
  LPS-induced NO generation, GW-A2 added with LPS or 24 h before LPS (prophylactic): significantly reduce
[2]; pre-incubation 1, 3, 6, 12 or 24 h, supernatant replaced, LPS 24 h, Fig 3C
  LPS-induced NO generation, GW-A2 washed off before LPS stimulation: not able to inhibit
[3]
  NF-κB transcriptional activity: reduced by GW-A2 in a dose-dependent manner
[4]
  Competition with LPS-FITC for cell surface binding: did not compete
  LPS-FITC binding to the cell surface in presence of GW-A2: increase in LPS-FITC binding to the cell surface
[5]
  IL-6 secretion level: reduced
  TNF-α secretion level: reduced
